pIC50: −log10 of the molar value.
Biological target: T1, human ACC2 (Homo sapiens, UniProt O00763)
T1 construct: made in house; host or cells: insect cells (baculoviral expression system)
Assay: ACC2 assay, spectrophotometric 384 well assay (NADH-linked, coupled lactate dehydrogenase/pyruvate kinase)
Format: biochemical
Details: ACC2 assay, hACC2 construct lacking 128 N-terminal amino acids, 25° C., 340 nm; read-out: IC50
Method in brief: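 ADP output tracked via pyruvate kinase/lactate dehydrogenase NADH oxidation, slope at 340 nm over 15 min, 25° C, with 500 μM ATP and 200 μM each acetyl-CoA and NADH. Enzyme: insect-cell-expressed human ACC2, N-terminal 128 residues deleted; pH 7.5 Tris with citrate, KHCO3. IC50 from four-parameter regression versus vehicle and no-acetyl-CoA controls.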

T1 sequence (O00763 129-2458 limits assumed): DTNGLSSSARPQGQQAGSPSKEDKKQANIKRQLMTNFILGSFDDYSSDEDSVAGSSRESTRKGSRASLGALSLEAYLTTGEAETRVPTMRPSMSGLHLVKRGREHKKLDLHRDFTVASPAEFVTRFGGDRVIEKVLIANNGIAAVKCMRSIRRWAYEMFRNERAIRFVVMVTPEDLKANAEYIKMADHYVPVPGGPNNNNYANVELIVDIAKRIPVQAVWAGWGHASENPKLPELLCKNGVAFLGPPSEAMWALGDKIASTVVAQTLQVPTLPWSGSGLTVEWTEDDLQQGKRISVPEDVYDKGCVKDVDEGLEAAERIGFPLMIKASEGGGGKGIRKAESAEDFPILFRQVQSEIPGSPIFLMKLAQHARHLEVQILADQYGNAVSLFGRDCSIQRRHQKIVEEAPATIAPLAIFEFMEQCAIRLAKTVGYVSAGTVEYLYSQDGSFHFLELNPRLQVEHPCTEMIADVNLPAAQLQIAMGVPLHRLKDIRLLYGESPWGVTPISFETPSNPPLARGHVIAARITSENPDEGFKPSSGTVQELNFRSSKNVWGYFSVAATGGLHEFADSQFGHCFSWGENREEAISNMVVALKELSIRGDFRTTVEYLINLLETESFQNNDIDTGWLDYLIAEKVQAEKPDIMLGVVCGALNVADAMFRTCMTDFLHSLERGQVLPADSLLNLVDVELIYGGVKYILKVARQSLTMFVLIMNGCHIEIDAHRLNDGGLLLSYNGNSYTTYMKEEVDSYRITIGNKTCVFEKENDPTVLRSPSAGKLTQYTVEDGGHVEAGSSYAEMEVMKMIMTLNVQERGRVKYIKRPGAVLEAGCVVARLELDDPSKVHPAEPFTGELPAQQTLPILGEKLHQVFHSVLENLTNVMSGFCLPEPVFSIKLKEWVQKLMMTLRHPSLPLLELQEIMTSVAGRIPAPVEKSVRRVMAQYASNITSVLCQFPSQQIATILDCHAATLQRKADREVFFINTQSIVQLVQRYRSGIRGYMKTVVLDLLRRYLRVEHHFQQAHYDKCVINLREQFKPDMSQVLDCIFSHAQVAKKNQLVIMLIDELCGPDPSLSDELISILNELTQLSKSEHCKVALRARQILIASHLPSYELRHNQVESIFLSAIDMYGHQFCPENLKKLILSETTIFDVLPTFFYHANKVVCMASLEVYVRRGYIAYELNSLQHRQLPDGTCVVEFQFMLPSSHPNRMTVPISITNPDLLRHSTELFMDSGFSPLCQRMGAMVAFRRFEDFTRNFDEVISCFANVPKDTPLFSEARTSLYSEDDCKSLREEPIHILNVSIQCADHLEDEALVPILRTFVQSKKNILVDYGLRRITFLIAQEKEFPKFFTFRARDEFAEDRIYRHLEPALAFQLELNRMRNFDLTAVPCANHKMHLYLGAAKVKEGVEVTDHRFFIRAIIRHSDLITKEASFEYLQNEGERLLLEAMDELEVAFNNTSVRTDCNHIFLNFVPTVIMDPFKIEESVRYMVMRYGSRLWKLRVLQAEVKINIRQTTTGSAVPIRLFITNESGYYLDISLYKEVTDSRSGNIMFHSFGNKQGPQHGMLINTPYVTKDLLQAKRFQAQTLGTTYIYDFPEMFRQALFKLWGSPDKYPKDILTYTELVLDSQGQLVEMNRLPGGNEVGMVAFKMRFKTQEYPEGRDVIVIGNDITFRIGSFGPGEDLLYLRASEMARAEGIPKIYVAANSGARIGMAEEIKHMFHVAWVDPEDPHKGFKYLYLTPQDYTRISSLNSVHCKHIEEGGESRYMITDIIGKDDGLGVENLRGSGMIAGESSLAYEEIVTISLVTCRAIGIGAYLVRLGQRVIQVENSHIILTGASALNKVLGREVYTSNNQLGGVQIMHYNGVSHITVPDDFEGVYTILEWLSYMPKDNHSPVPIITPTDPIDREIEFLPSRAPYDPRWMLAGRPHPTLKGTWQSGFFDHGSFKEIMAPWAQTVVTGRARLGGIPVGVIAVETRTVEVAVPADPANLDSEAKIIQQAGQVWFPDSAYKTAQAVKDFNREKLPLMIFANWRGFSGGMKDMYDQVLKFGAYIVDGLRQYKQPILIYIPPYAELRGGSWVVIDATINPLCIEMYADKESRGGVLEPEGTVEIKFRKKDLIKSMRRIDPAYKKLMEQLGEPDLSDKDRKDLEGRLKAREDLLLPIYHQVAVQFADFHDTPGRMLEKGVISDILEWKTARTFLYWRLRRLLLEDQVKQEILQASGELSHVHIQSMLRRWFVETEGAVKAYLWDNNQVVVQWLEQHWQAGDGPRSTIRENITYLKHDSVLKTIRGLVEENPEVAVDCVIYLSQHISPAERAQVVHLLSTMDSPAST

| Structure (SMILES) | pIC50 |
| --- | --- |
| CCCC(C)Oc1ccc(N2CCC(c3ccc([C@H](C)NC(C)=O)cc3)CC2)cc1F (stereo partly drawn) [Example 8.58] | 6.43 |
| CCC(C)Oc1ccc(N2CCC(c3ccc([C@H](C)NC(C)=O)cc3)CC2)cc1F (stereo partly drawn) [Example 8.53] | 6.52 |
| CC(=O)N[C@@H](C)c1ccc(C2CCN(c3ccc(C(=O)Nc4ccccc4)cn3)CC2)cc1 [Example 5.30] | 6.74 |
| CCOCC(=O)N[C@@H](C)c1ccc(C2CCN(c3ccc(OCC)cc3)CC2)cc1 [Example 6.17] | 5.72 |
| COc1cc(OCC2CC2)ccc1N1CCC(c2ccc([C@H](C)NC(C)=O)cc2)CC1 [Example 1.36] | 6.39 |
| COc1ccc(N2CCC(c3ccc([C@H](C)NC(C)=O)cc3)CC2)cc1OC [Example 1.43] | 5.39 |
| CCC(C)Oc1ccc(N2CCC(c3ccc([C@H](C)NC(C)=O)cc3)CC2)c(C#N)c1 (stereo partly drawn) [Example 4.202] | 6.82 |
| CC(=O)N[C@@H](C)c1ccc(C2CCN(c3ccc(OC4CCC4)c(C)c3)CC2)cc1 [Example 8.11] | 5.74 |
| C[C@H](NC(=O)N(C)C)c1ccc(C2CCN(c3ccc4c(c3)OCC(C)(C)CO4)CC2)cc1 [Example 1.58] | 6.92 |
| CC(=O)N[C@@H](C)c1ccc(C2CCN(c3ccc(OC4CCCC4)c(F)c3)CC2)cc1 [Example 8.37] | 6.18 |
| CC(=O)N[C@@H](C)c1ccc(C2CCN(c3ccc(-c4ccc(Cl)cc4)cn3)CC2)cc1 [Example 5.44] | 7.15 |
| CCOCCOc1ccc(N2CCC(c3ccc([C@H](C)NC(C)=O)cc3)CC2)cc1 [Example 8.1] | 6.36 |
| CCCCOc1cc(N2CCC(c3ccc([C@H](C)NC(C)=O)cc3)CC2)ccn1 [Example 3.4] | 6.96 |
| CC(=O)N[C@@H](C)c1ccc(C2CCN(c3ccc(OC4CCCC4)c(C#N)c3)CC2)cc1 [Example 8.36] | 5.66 |
| CC(=O)N[C@@H](C)c1ccc(C2CCN(c3ccc(Cl)c(C)c3)CC2)cc1 [Example 1.156] | 6.22 |
| CC(=O)N[C@@H](C)c1ccc(C2CCN(c3ccc(C4CC4)nc3)CC2)cc1 [Example 1.175] | 5.96 |
| CCOc1ccc(N2CCC(c3ccc([C@H](C)NC(=O)c4ccc[nH]4)cc3)CC2)cc1 [Example 6.22] | 6.17 |
| CCOc1ccc(N2CCC(c3ccc([C@H](C)NC(=O)C(C)(C)OC)cc3)CC2)cc1 [Example 6.44] | 4.60 |
| CC(=O)N[C@@H](C)c1ccc(C2CCN(c3ccc(C4(S(C)(=O)=O)CC4)cn3)CC2)cc1 [Example 5.8] | 4.72 |
| CC(=O)N[C@@H](C)c1ccc(C2CCN(c3ccc(OC4CCC4)nc3)CC2)cc1 [Example 1.62] | 6.70 |
| CC(=O)N[C@@H](C)c1ccc(C2CCN(c3ccc(I)cn3)CC2)cc1 [Example 5.12] | 6.66 |

Second part, the molecule after the results:

| pIC50 | Structure (SMILES) |
| --- | --- |
| 6.77 | C[C@H](NC(=O)C1CC1)c1ccc(C2CCN(c3ncc(-c4ccoc4)cn3)CC2)cc1 [Example 10.104] |
| 6.22 | CC(=O)N[C@@H](C)c1ccc(C2CCN(c3ncc(-c4ccco4)cn3)CC2)cc1 [Example 10.96] |
| 6.85 | COc1cc(-c2cnc(N3CCC(c4ccc([C@H](C)NC(C)=O)cc4)CC3)nc2)ccc1C#N [Example 10.128] |
| 7.52 | CC(=O)N[C@@H](C)c1ccc(C2CCN(c3ncc(-c4ccccc4)cn3)CC2)cc1 [Example 10.43] |
| 5.80 | CCOc1ccc(N2CCC(c3ccc([C@H](C)NC(=O)CC(=O)OC)cc3)CC2)cc1 [Example 31.1, (S)-Methyl 3-(1-(4-(1-(4-Ethoxyphenyl)piperidin-4-yl)phenyl)ethylamino)-3-oxopropanoate] |
| 5.77 | CCOc1ccc(N2CCC(c3ccc([C@H](C)NC(=O)Nc4cccnc4)cc3)CC2)cc1 [Example 14.55] |
| 5.22 | CC(=O)N[C@@H](C)c1ccc(C2CCN(c3ncc(C(=O)N4Cc5ccncc5C4)cn3)CC2)cc1 [Example 18.46] |
| 4.83 | CC(=O)N[C@@H](C)c1ccc(C2CCN(c3ncc(C(=O)N4CCC(C#N)CC4)cn3)CC2)cc1 [Example 18.71] |
| 6.04 | CC(=O)N[C@@H](C)c1ccc(C2CCN(c3ccnc(OCc4ccon4)c3)CC2)cc1 [Example 19.29] |
| 6.10 | CC(=O)N[C@@H](C)c1ccc(C2CCN(c3cc(N(C)C4CC4)ncn3)CC2)cc1 [Example 11.87] |
| 6.77 | CC(=O)N[C@@H](C)c1ccc(C2CCN(c3cc(OC4CCCC4)ncn3)CC2)cc1 [Example 11.7] |
| 4.72 | CC(=O)N[C@@H](C)c1ccc(C2CCN(c3ncc(C(=O)N4CCC(C(N)=O)CC4)cn3)CC2)cc1 [Example 18.61] |
| 6.11 | CC(=O)N[C@@H](C)c1ccc(C2CCN(c3ccnc(N(C)C4CC4)n3)CC2)cc1 [Example 11.86] |
| 5.82 | CC(=O)N[C@@H](C)c1ccc(C2CCN(c3ncc(-c4ccc(OCC5CC5)nc4)cn3)CC2)cc1 [Example 10.51] |
| 5.80 | CC(=O)N[C@@H](C)c1ccc(C2CCN(c3ccnc(N4Cc5ccccc5C4)n3)CC2)cc1 [Example 11.88] |
| 6.64 | CC(=O)N[C@@H](C)c1ccc(C2CCN(c3cc(OCC(C)C)ncn3)CC2)cc1 [Example 11.15] |
| 5.64 | CC(=O)N[C@@H](C)c1ccc(C2CCN(c3ccc(OCC4CCOCC4)cc3)CC2)cc1 [Example 9.30] |

| pIC50 | Structure (SMILES) |
| --- | --- |
| 5.21 | CC(=O)N[C@@H](C)c1ccc(C2CCN(c3ncc(C(=O)NCCC(N)=O)cn3)CC2)cc1 [Example 18.82] |
| 6.01 | CC(=O)N[C@@H](C)c1ccc(C2CCN(c3ncc(-c4ccc(OC(C)C)cc4)cn3)CC2)cc1 [Example 10.27] |
| 6.80 | CC(=O)N[C@@H](C)c1ccc(C2CCN(c3ccc(-c4ccc5c(c4)OCO5)cn3)CC2)cc1 [Example 10.312] |
| 4.93 | CC(=O)N[C@@H](C)c1ccc(C2CCN(c3ncc(C(=O)NCC4CCN(Cc5ccccc5)C4)cn3)CC2)cc1 (stereo partly drawn) [Example 18.62] |
| 5.18 | CC(=O)N[C@@H](C)c1ccc(C2CCN(c3ncc(C(=O)N4CCc5cnccc54)cn3)CC2)cc1 [Example 18.40] |
| 5.40 | CC(=O)N[C@@H](C)c1ccc(C2CCN(c3cc(NCc4ccoc4)ncn3)CC2)cc1 [Example 11.101] |
| 4.78 | CC(=O)N[C@@H](C)c1ccc(C2CCN(c3ncc(C(=O)N4CCCC4CN(C)C)cn3)CC2)cc1 (stereo partly drawn) [Example 18.88] |
| 6.77 | C[C@H](NC(=O)N(C)C)c1ccc(C2CCN(c3ncc(-c4ccccc4)cn3)CC2)cc1 [Example 10.111] |
| 6.55 | CC(=O)N[C@@H](C)c1ccc(C2CCN(c3ccc(-c4ccc(C)cc4)cn3)CC2)cc1 [Example 10.314] |
| 4.98 | CC(=O)N[C@@H](C)c1ccc(C2CCN(c3cc(NCCc4ccccc4)ncn3)CC2)cc1 [Example 11.72] |
| 5.05 | CNC(=O)CNC(=O)c1cnc(N2CCC(c3ccc([C@H](C)NC(C)=O)cc3)CC2)nc1 [Example 18.72] |
| 6.55 | CC(=O)N[C@@H](C)c1ccc(C2CCN(c3cc(N4CC5CCCC5C4)ncn3)CC2)cc1 (stereo partly drawn) [Example 11.77] |
| 6.52 | CC(=O)N[C@@H](C)c1ccc(C2CCN(c3cc(Oc4cccc(F)c4)ncn3)CC2)cc1 [Example 11.27] |
| 5.60 | CC(=O)N[C@@H](C)c1ccc(C2CCN(c3cc(-c4ccc5c(c4)OCO5)ncn3)CC2)cc1 [Example 22.2] |
| 5.96 | CC(=O)N[C@@H](C)c1ccc(C2CCN(c3ccc(NCC(C)C)cc3)CC2)cc1 [Example 24.3] |
| 4.75 | CC(=O)N[C@@H](C)c1ccc(C2CCN(c3ncc(C(=O)NCCC(C)O)cn3)CC2)cc1 (stereo partly drawn) [Example 18.75] |

Source: patent publication US9006450B2 (Boehringer Ingelheim International GmbH, priority 2010, dated 2015)
